Test results taken from patent US20090149540A1, “Compositions and Methods for Attenuating Mitochondria-Mediated Cell Injury” (priority 2005, published 2009).

Columns and labels:
[1] = radioactive tracer studies in whole animals; cited from earlier work
[2] = system: entire mitochondrial protein extract; assay: Biotin-switch analysis of mitochondrial protein S-nitrosation; type: biochemical, rat; details: for S-nitrosation of mitochondrial protein, comparison of NO* donors: entire mitochondrial protein extract
Protocol: (§1) Rat heart mitochondria were isolated using differential centrifugation (Tompkins, et al. (2005) Biochim. Biophys. Acta PMID: 16278076). Protein was determined by the Folin-phenol method (Lowry, et al. (1951) J. Bio. Chem. 193:265-75) against a standard curve constructed using bovine serum albumin. Mitochondrial incubations and all subsequent steps were performed in the dark. One mg of mitochondrial protein was suspended in 1 mL of mitochondrial respiration buffer (Tompkins, et al. (2005) supra) containing respiratory substrates glutamate (5 mM), malate (2.5 mM) and succinate (5 mM). […] Samples were centrifuged (5 minutes, 14,000×g), and supernatants removed. The pellets were then resuspended in 1 mL of respiration buffer, and centrifuged again. Pellets were frozen in liquid N2 for subsequent analysis. For ONOO^− treatments, 4 μL of 25 mM ONOO^− stock (100 μM final concentration) was added the cap of the reaction tube, the cap quickly closed and the tube shaken immediately. The process was then repeated twice at 30 second intervals, for a total of 3 additions. Mitochondria were then pelleted, washed, and frozen as for S-nitrosoglutathione samples. Complex I activity was assayed as the rotenone-sensitive oxidation of NADH, at 340 nm in the presence of coenzyme Q1 (Borutaite, et al. (2000) supra). Complex IV was assayed by monitoring the cyanide-sensitive first-order oxidation of reduced cytochrome c, at 550 nm according to established methods (Cleeter, et al. (1994) supra).
For biotin-switch analysis, intact mitochondrial pellets (1 mg protein solubilized in extraction buffer) or chromatography column fractions were analyzed in accordance with known methods (Jaffrey & Snyder (2001) supra). Samples were separated in duplicate on non-reducing SDS-PAGE gels; half the gel was stained with COOMASSIE® blue, and the other half blotted and probed with streptavidin-HRP and ECL™ detection (GE biosciences) Blots and stained gels were aligned, and S-nitrosated proteins excised, trypsinized, and identified by peptide mass fingerprinting. Mass spectra (MALDI-TOF) were analyzed using the MASCOT™ algorithm available on the world-wide web at matrixscience.com.

[3] = system: isolated adult rat cardiomyocytes; assay: Cardiomyocyte model of ischemia-reperfusion injury, cell viability by Trypan blue exclusion; type: cell-based; details: 10 μM or 20 μM; 1 hour ischemia, 30 minutes reoxygenation
Protocol: Isolated adult rat cardiomyocytes were subjected to 1 hour ischemia (anoxic, glucose free medium, pH 6.5) followed by 30 minutes reoxygenation (labeled “HR”). Cell viability was assayed by Trypan blue exclusion. […] All data are means±SEM, N>3.
Adult rat cardiomyocytes were prepared by collagenase perfusion according to standard methods (Dai, et al. (2001) supra), yielding ˜4×10^6 cells per heart, >80% rod-shaped and viable. Incubations were in a shaking water bath at 37° C., each utilizing 5×10^5 cells in 5 mL of the KH buffers described below. For the control, cells were incubated for 2 hours in oxygenated KH buffer (95/5 O2/CO2). For ischemia-reperfusion treatment, cells were subjected to 30 minutes in oxygenated KH buffer, 1 hour in “ischemic” KH buffer (95/5 N2/CO2, pH 6.5, no glucose), and 30 minutes in oxygenated KH buffer. For the ischemia-reperfusion injury and test compound group of cells, ischemia-reperfusion injury was carried out as described above with test compound present during the 30 minute equilibration prior to ischemia-reperfusion and absent during ischemia. […] At the end of each protocol, cell viability was assayed (Trypan blue), and mitochondrial function determined (measurement of ΔΨm with the fluorescent probe TMRE, respiration with an O2 electrode, and S-nitrosothiol content by chemiluminescence and biotin-switch.

[4] = system: isolated mitochondria; assay: Chemiluminescent NO analysis of total S-nitrosothiol in isolated mitochondria; type: biochemical, rat
Protocol: At concentrations above 250 μM, secondary reactions such as free S-nitrosothiol or NO2^− formation were observed.
as §1
Chemiluminescent analysis of S-nitrosothiol content was performed on samples originating from blue-native gels, intact mitochondria and SUPEROSE™ 6 chromatography fractions, according to known methodologies (Yang, et al. (2003) Free Radic. Res. 37:1-10). […] Each sample was run in duplicate and quantified using a standard curve created with known concentrations of NaNO2.

[5] = target: T1, mitochondrial complex I (Rattus norvegicus, UniProt Q66HF1); assay: Complex I activity (rotenone-sensitive NADH/Co-Q1 oxidation/reduction) in treated mitochondria; type: biochemical; details: S-nitrosoglutathione treatment of mitochondria; exposure to light
T1 construct: Rat heart mitochondria were isolated using differential centrifugation; from tissue; host or cells: rat heart mitochondria (male Sprague-Dawley rats)
Description: Assuming heart mitochondria contain ˜50 pmol complex I per mg protein (Schagger & Pfeiffer (2001) J. Biol. Chem. 276:37861-37867), it was observed that S-nitrosation plateaud at a ˜7:1 mol/mol ratio (i.e., 7 mols S-nitrosothiol per mol complex I), while maximum complex I inhibition was ˜20-25%. This apparent mis-match between the stoichiometry of S-nitrosation (7:1) and the degree of inhibition (25%) may reflect S-nitrosation of complex I on multiple subunits. Alternatively, since the spectrophotometric complex I activity assay was performed at 340 nm, close to the absorption maxima of S-nitrosothiols (335 nm), S-nitrosothiols within complex I may have been destroyed during the assay, leading to underestimation of inhibition by S-nitrosation.
Rat heart mitochondria were isolated using differential centrifugation (Tompkins, et al. (2005) Biochim. Biophys. Acta PMID: 16278076). Protein was determined by the Folin-phenol method (Lowry, et al. (1951) J. Bio. Chem. 193:265-75) against a standard curve constructed using bovine serum albumin. Mitochondrial incubations and all subsequent steps were performed in the dark. One mg of mitochondrial protein was suspended in 1 mL of mitochondrial respiration buffer (Tompkins, et al. (2005) supra) containing respiratory substrates glutamate (5 mM), malate (2.5 mM) and succinate (5 mM). […]

T1 sequence (Q66HF1 24-727, one chain of several): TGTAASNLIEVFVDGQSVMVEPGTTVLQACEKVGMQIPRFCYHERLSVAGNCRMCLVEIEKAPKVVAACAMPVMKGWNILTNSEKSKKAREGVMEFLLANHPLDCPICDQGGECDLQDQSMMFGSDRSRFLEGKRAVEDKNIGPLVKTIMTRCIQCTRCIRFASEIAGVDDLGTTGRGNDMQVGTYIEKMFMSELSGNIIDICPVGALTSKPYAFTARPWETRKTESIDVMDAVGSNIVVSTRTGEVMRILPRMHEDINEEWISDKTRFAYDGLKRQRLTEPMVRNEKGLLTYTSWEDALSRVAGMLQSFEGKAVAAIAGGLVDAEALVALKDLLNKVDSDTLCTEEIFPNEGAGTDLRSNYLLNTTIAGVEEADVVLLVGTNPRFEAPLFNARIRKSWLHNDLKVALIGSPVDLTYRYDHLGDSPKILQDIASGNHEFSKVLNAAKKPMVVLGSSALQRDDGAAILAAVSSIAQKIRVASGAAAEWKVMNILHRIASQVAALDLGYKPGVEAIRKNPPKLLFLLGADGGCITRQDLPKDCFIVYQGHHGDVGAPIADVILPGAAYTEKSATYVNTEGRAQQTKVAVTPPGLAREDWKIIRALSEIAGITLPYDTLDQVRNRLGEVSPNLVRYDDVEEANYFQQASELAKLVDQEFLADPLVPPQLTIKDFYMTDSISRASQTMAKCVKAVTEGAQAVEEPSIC

CC(S)C(=O)NCC(=O)O (stereo not drawn) [2-Mercaptopropionylglycine]
cell entry and mitochondrial accumulation [1]: readily enters cells and accumulates in mitochondria

NCCN(CCN)/[N+]([O-])=N/O [DETA-NONOate]
S-nitrosation of mitochondrial protein, comparison of NO* donors [2]: S-nitrosoglutathione resulted in far more S-nitrosation than DETA-NONOate

O=NOO [ONOO^−, peroxynitrite]
S-nitrosation of mitochondrial protein, comparison of NO* donors [2]: S-nitrosoglutathione resulted in far more S-nitrosation than DETA-NONOate or ONOO^−

CC(SN=O)C(=O)NCC(=O)O (stereo not drawn) [S-nitroso-2-mercaptopropylglycine]
protection of cardiomyocyte viability from ischemia-reperfusion injury [3]: significant protection of cardiomyocytes from ischemia-reperfusion injury
S-nitrosation of mitochondrial proteins compared with S-nitrosoglutathione ([2]; same concentrations, 10-100 μM): much greater degree of S-nitrosation of mitochondrial proteins than did S-nitrosoglutathione

N[C@@H](CCC(=O)N[C@@H](CSN=O)C(=O)NCC(=O)O)C(=O)O [S-nitrosoglutathione]
concentration at which formation of protein bound S-nitrosothiol saturates ([2]; biotin-switch and chemiluminescent data together): ~250 µM
concentration at which plateau of mitochondrial protein S-nitrosation is reached ([2]; dose response over the range 50-250 μM): ~200 µM
S-nitrosation of mitochondrial protein, comparison of NO* donors [2]: far more S-nitrosation than DETA-NONOate or ONOO^−
concentration at which total S-nitrosothiol (free plus protein-bound) approaches saturation ([4]; 10 μM to 1 mM): ~300 µM
total S-nitrosothiol ([4]; 100 μM treatment): ~1700 pmol/mg mitochondrial protein
concentrations at which secondary reactions such as free S-nitrosothiol or NO2− formation were observed ([4]; isolated mitochondria): above 250 μM
complex I inhibition and its reversibility [5]: complex I inhibition that was reversible by exposure of mitochondria to light
